Marks after values point to notes of the source that are not given here.
How the values were obtained:
[1] = system: Proteus mirabilis ATCC 25933; assay: disc diffusion assay; assay type: cell-based; details: P. mirabilis ATCC 25933; 50 μL of oil/well, chloramphenicol 30 µg; includes 6 mm well
Description: (§1) The antibacterial activity was evaluated against the following six bacterial strains representing Gram-positive and Gram-negative bacteria: Escherichia coli ATCC 25922, Proteus mirabilis ATCC 25933, Salmonella Typhimurium ATCC 700408, Bacillus subtilis ATCC 6633, Staphylococcus aureus ATCC 29213, and Listeria monocytogenes ATCC 13932. The tested bacterial strains were prepared by inoculating a loopful from the frozen stock (−20 °C) in Mueller–Hinton Agar (Biokar, Beauvais, France) and incubated at 37 °C for 24 h under an aerobic environment.
(§2) The primary screening of the antimicrobial activity of the studied samples was evaluated by the disc diffusion method according to the previously published investigation. Briefly, the culture suspension of each species was inoculated in Mueller–Hinton Agar (Biolife, Italiana, Milano-Italy). […] Chloramphenicol (30 µg) was used as a positive control for bacteria strains, while dimethylsulfoxide (DMSO) (10 µL; 5%) was used as a negative control. The plates were incubated at the following growth conditions; 37 °C for 24 h, 25 °C for 48 h, and 25 °C for 72 h for bacteria, yeast, and fungi, respectively. After incubation, the inhibitory diameters were measured in millimeters, and the results were expressed as means ± Standard Deviation of three replicates.

[2] = system: Bacillus subtilis ATCC 6633; assay: disc diffusion assay; assay type: cell-based; details: B. subtilis ATCC 6633; 50 μL of oil/well, chloramphenicol 30 µg; includes 6 mm well
Description: as §1, §2

[3] = system: Salmonella Typhimurium ATCC700408; assay: disc diffusion assay; assay type: cell-based; details: S. Typhimurium ATCC700408; 50 μL of oil/well, chloramphenicol 30 µg; includes 6 mm well
Description: as §1, §2

[4] = system: Listeria monocytogenes ATCC 13932; assay: disc diffusion assay; assay type: cell-based; details: L. monocytogenes ATCC 13932; 50 μL of oil/well, chloramphenicol 30 µg; includes 6 mm well
Description: as §1, §2

[5] = system: Escherchia coli ATCC 25922; assay: disc diffusion assay; assay type: cell-based, Escherichia coli; details: E. coli ATCC 25922; 50 μL of oil/well, chloramphenicol 30 µg; includes 6 mm well
Description: as §1, §2

[6] = system: carrageenan-induced edema; design: method as in PMID 12587692; details: 32, 64, and 96 mg/kg; cited from earlier work
H2O2 antioxidant assay = assay type: biochemical; details: n = 3
Description: (§3) The antioxidant activity of PGEO was evaluated by using […] complementary methods, DPPH, FRAP, ABTS, and H2O2 assays, according to the previously published protocols. The results are expressed as the concentration of PGEO providing 50% inhibition (IC50) and calculated by plotting the inhibition degrees against the essential oil concentrations. Trolox and ascorbic acid were used as positive controls. The assays were carried out in triplicate, and the IC50 values were presented as means ± SD.

ABTS antioxidant assay = assay type: biochemical; details: n = 3
Description: as §3

FRAP antioxidant assay = assay type: biochemical; details: n = 3
Description: as §3

DPPH antioxidant assay = assay type: biochemical; details: n = 3
Description: as §3

[7] = system: rats treated with ethanol for the induction of gastric ulcers; design: method as in PMID 24466200; details: 50 mg/kg; cited from earlier work
diabetic animals = system: diabetic animals; design: method as in PMID 28549291; details: daily doses 25, 50, and 100 mg/kg b.w.; cited from earlier work
monocytes = system: monocytes; design: method as in PMID 9889172; details: in vitro; cited from earlier work
[8] = system: occlusion of the middle cerebral artery in male rats; details: intraperitoneal 100 mg/kg, cited from earlier work
[9] = system: inflammatory responses by lipopolysaccharide (LPS) in mice; details: cited from earlier work
[10] = system: alloxan-induced diabetic mice; design: method as in doi:10.23893/1307-2080.APS.05522; details: 2 and 24 h after the treatment; cited from earlier work
[11] = system: catabolic and inflammatory pathways induced by IL-1β; design: method as in PMID 24455984; details: in vitro; cited from earlier work
COX-2 = system: COX-2; design: method as in PMID 26721216; details: cited from earlier work

With O=C(N[C@H](CO)[C@H](O)c1ccc([N+](=O)[O-])cc1)C(Cl)Cl [Chloramphenicol] the inhibitory diameter [1] was 21.27 ± 0.21 mm, the inhibitory diameter [2] was 15.87 ± 0.21 mm and the inhibitory diameter [3] was 13.17 ± 0.25 mm. For the same compound, the inhibitory diameter [4] was 29.07 ± 0.58 mm and the inhibitory diameter [5] was 22.47 ± 0.21 mm.

In the case of C=CC(C)(CCC=C(C)C)OC(C)=O (stereo not shown) [linalyl acetate], the carrageenan-induced edema [6] is listed as “remarkable reduction”.

For O=C1O[C@H]([C@@H](O)CO)C(O)=C1O [Ascorbic Acid, Ascorbic acid], the “antioxidant activity IC50, H2O2” value (H2O2 antioxidant assay) was 23.34 ± 0.03 ^a μg/mL, the “antioxidant activity IC50, ABTS” value (ABTS antioxidant assay) was 42.22 ± 0.05 ^a μg/mL and the “antioxidant activity IC50, FRAP” value (FRAP antioxidant assay) was 31.47 ± 1.07 ^a μg/mL. For the same compound, the “antioxidant activity IC50, DPPH” value (DPPH antioxidant assay) was 15.13 ± 0.04 ^a μg/mL.

With Cc1c(C)c2c(c(C)c1O)CCC(C)(C(=O)O)O2 (stereo not shown) [Trolox] the “antioxidant activity IC50, ABTS” value (ABTS antioxidant assay) was 61.48 ± 1.32 ^b μg/mL, the “antioxidant activity IC50, FRAP” value (FRAP antioxidant assay) was 48.25 ± 0.05 ^b μg/mL and the “antioxidant activity IC50, DPPH” value (DPPH antioxidant assay) was 24.31 ± 0.02 ^b μg/mL.

In the case of CC1CCC(C(C)C)C(O)C1 (stereo not shown) [menthol], the “levels of IL-6 and TNF-α” value [7] is listed as “reduced the levels of IL-6 and TNF-α”, the “glycosylated hemoglobin, blood glucose levels” value (diabetic animals) is listed as “decreased glycosylated hemoglobin, blood glucose levels” and the “production of IL-1, PGE2, and LTB4” value (monocytes) is listed as “inhibit the production of inflammation mediators”.

For CC1=CCC2CC1C2(C)C (stereo not drawn) [α-pinene], the “expression of IL-1 and TNF-α” value [8] is given as “decreased”, the “concentration of IL-6, NO, and malondialdehyde (MDA)” value ([8]; striatum, cortex, and hippocampus) is given as “decreased” and the “synthesis of nitric oxide (NO), TNF-α, and IL-6” value [9] is given as “decrease the synthesis of nitric oxide (NO), TNF-α, and IL-6”. The “fasting blood glucose levels” value [10] was “reduce fasting blood glucose levels”, the “expression of catabolic and inflammatory genes, activation of NF-κB and JNK” value [11] was “strongly inhibits” and the COX-2 overexpression (COX-2) was “potent effect on COX-2 overexpression”.
